Reference: publication PMC12022903, “Evaluation of drug-drug interaction between Suraxavir Marboxil (GP681) and itraconazole, and assessment of the impact of gene polymorphism” (Frontiers in Pharmacology, 2025)
Read-outs that look alike come from different tables or passages of the source.

What was measured:
MDR1 [1] = system: MDR1; set-up: method as in unpublished data; details: preclinical studies; ref unpublished data; cited from earlier work
OAT1 = system: OAT1; set-up: method as in unpublished data; details: preclinical studies; ref unpublished data; cited from earlier work
[2] = assay type: in vivo
Procedure: This single-center, open-label, self-controlled, fixed-sequence study, sponsored by Qingfeng Pharmaceutical Group Co., Ltd., was conducted at a single clinical research site in the China–Japan Friendship Hospital (Beijing, China). Each subject received the following treatment: Suraxavir Marboxil (GP681) 20 mg in the fasted state on day 1 and day 26. Itraconazole capsules (Sporanox®: Xi’an Yangsen Pharmaceutical Co., Ltd., China) 0.2 g twice daily (BID, bis in die) on day 22. Itraconazole 0.2 g daily from day 23 to day 36 [including day 26, when itraconazole was co-administrated with Suraxavir Marboxil (GP681)]. The washout period is 21 days (Figure 2).
Safety was assessed through physical examination, vital sign measurements, clinical laboratory tests, 12-lead electrocardiograms, and assessment of self-reported symptoms. Adverse events were collected from the first dose through the end of the study. All safety data collected were assessed for severity and relationship to each study drug, Suraxavir Marboxil (GP681) or itraconazole. The severity of an adverse event was graded according to Common Terminology Criteria for Adverse Events (CTCAE) v5.0. For each adverse event occurred, investigators continued to follow up until it was resolved. Adverse event analysis is based on Safety Set (SS), coded with MedDRA version 26.0. Adverse events will be summarized by system organ class (SOC) and preferred term (PT) in terms of number of cases, occurrences, and incidence rate.

carboxylesterase CES2 = system: carboxylesterase CES2; set-up: method as in unpublished data; details: preclinical studies; ref unpublished data; cited from earlier work
[3] = set-up: method as in unpublished data; details: within 336 h after oral administration; ref unpublished data; cited from earlier work
[4] = set-up: method as in unpublished data; details: preclinical studies; ref unpublished data; cited from earlier work
OATP1B1 = system: OATP1B1; set-up: method as in unpublished data; details: preclinical studies; ref unpublished data; cited from earlier work
BCRP = system: BCRP; set-up: method as in unpublished data; details: preclinical studies; ref unpublished data; cited from earlier work
MDR1 [5] = system: MDR1; set-up: method as in unpublished data; details: preclinical studies; ref unpublished data; cited from earlier work; remark: listed apart in the source
OAT3 = system: OAT3; set-up: method as in unpublished data; details: preclinical studies; ref unpublished data; cited from earlier work
OATP1B3 = system: OATP1B3; set-up: method as in unpublished data; details: preclinical studies; ref unpublished data; cited from earlier work
liver enzymes = system: liver enzymes; set-up: method as in unpublished data; details: preclinical studies; ref unpublished data; cited from earlier work
[6] = quantification limit 0.3 ng/mL
[7] = N = 12, treatment stage given by label

SMILES: COC(=O)OCOc1c2n(ccc1=O)N([C@@H]1c3ccccc3SCc3c1ccc(F)c3F)[C@@H]1COC3(CC3)CN1C2=O [GP681, (((R)-12'-((S)-7,8-difluoro-6, 11-dihydro-2-benzothiophene-11-yl)-6′, 8′-dioxide-6′, 8′, 12′, 12a′-tetrahydro-1′H-, 4′H-spiro [cyclopropane-1, 3'-[1, 4]oxazine [3,4-c]pyridine and [2,1-f] [1,2, 4]triazine]-7′-yl)oxy) methyl carbonate]
- inhibition of transport activity of MDR1 (MDR1 [1]): nor do they inhibit the transport activity
- inhibition of transport activity of OAT1 (OAT1): nor do they inhibit the transport activity
- TEAE Alanine aminotransferase increased: no. of TEAEs [2, 7]: 1
- TEAE Alanine aminotransferase increased: no. of subjects (percent of subjects) [2, 7]: 1 (8.3)
- TEAE Basophil count increased: no. of subjects (percent of subjects) [2, 7]: 0
- TEAE Gamma-glutamyltransferase increased: no. of TEAEs [2, 7]: 1
- TEAE Gamma-glutamyltransferase increased: no. of subjects (percent of subjects) [2, 7]: 1 (8.3)
- TEAE Hemoglobin decreased: no. of TEAEs [2, 7]: 1
- TEAE Hemoglobin decreased: no. of subjects (percent of subjects) [2, 7]: 1 (8.3)
- TEAE Hepatobiliary disorders: no. of subjects (percent of subjects) [2, 7]: 0
- TEAE Hyperbilirubinemia: no. of subjects (percent of subjects) [2, 7]: 0
- TEAE Hypertriglyceridemia: no. of TEAEs [2, 7]: 1
- TEAE Hypertriglyceridemia: no. of subjects (percent of subjects) [2, 7]: 1 (8.3)
- TEAE Hyperuricemia: no. of TEAEs [2, 7]: 1
- TEAE Hyperuricemia: no. of subjects (percent of subjects) [2, 7]: 1 (8.3)
- TEAE Hypophosphatemia: no. of subjects (percent of subjects) [2, 7]: 0
- TEAE Investigations: no. of TEAEs [2, 7]: 7
- TEAE Investigations: no. of subjects (percent of subjects) [2, 7]: 4 (33.3)
- TEAE Lymphocyte count decreased: no. of TEAEs [2, 7]: 1
- TEAE Lymphocyte count decreased: no. of subjects (percent of subjects) [2, 7]: 1 (8.3)
- TEAE Metabolism and nutrition disorders: no. of TEAEs [2, 7]: 2
- TEAE Metabolism and nutrition disorders: no. of subjects (percent of subjects) [2, 7]: 2 (16.7)
- TEAE Occult blood in urine: no. of TEAEs [2, 7]: 1
- TEAE Occult blood in urine: no. of subjects (percent of subjects) [2, 7]: 1 (8.3)
- TEAE Overall total: no. of TEAEs [2, 7]: 9
- TEAE Overall total: no. of subjects (percent of subjects) [2, 7]: 5 (41.7)
- TEAE Red blood cell increased: no. of TEAEs [2, 7]: 1
- TEAE Red blood cell increased: no. of subjects (percent of subjects) [2, 7]: 1 (8.3)
- TEAE Total bile acid increased: no. of TEAEs [2, 7]: 1
- TEAE Total bile acid increased: no. of subjects (percent of subjects) [2, 7]: 1 (8.3)
- TEAE White blood cell increased: no. of subjects (percent of subjects) [2, 7]: 0
- TEAE related to GP681, Alanine aminotransferase increased: no. of TEAEs [2, 7]: 1[1]
- TEAE related to GP681, Alanine aminotransferase increased: no. of subjects [2, 7]: 1[1]
- TEAE related to GP681, Gamma-glutamyltransferase increased: no. of TEAEs [2, 7]: 1[1]
- TEAE related to GP681, Gamma-glutamyltransferase increased: no. of subjects [2, 7]: 1[1]
- TEAE related to GP681, Hemoglobin decreased: no. of TEAEs [2, 7]: 1[1]
- TEAE related to GP681, Hemoglobin decreased: no. of subjects [2, 7]: 1[1]
- TEAE related to GP681, Hypertriglyceridemia: no. of TEAEs [2, 7]: 1[1]
- TEAE related to GP681, Hypertriglyceridemia: no. of subjects [2, 7]: 1[1]
- TEAE related to GP681, Hypophosphatemia: no. of TEAEs [2, 7]: 1[1]
- TEAE related to GP681, Hypophosphatemia: no. of subjects [2, 7]: 1[1]
- TEAE related to GP681, Investigations: no. of TEAEs [2, 7]: 7
- TEAE related to GP681, Investigations: no. of subjects [2, 7]: 3
- TEAE related to GP681, Lymphocyte count decreased: no. of TEAEs [2, 7]: 1[1]
- TEAE related to GP681, Lymphocyte count decreased: no. of subjects [2, 7]: 1[1]
- TEAE related to GP681, Metabolism and nutrition disorders: no. of TEAEs [2, 7]: 2[2]
- TEAE related to GP681, Metabolism and nutrition disorders: no. of subjects [2, 7]: 2[2]
- TEAE related to GP681, Occult blood in urine: no. of TEAEs [2, 7]: 1[1]
- TEAE related to GP681, Occult blood in urine: no. of subjects [2, 7]: 1[1]
- TEAE related to GP681, Overall total: no. of TEAEs [2, 7]: 9
- TEAE related to GP681, Overall total: no. of subjects [2, 7]: 4
- TEAE related to GP681, Red blood cell increased: no. of TEAEs [2, 7]: 1[1]
- TEAE related to GP681, Red blood cell increased: no. of subjects [2, 7]: 1[1]
- TEAE related to GP681, Total bile acid increased: no. of TEAEs [2, 7]: 1[1]
- TEAE related to GP681, Total bile acid increased: no. of subjects [2, 7]: 1[1]
- TEAE Overall total: no. of subjects (percent of subjects) ([2]; N = 12, treatment stage given by label, listed as Suraxavir Marboxil (GP681)): 5
- TEAE related to GP681, Overall total: no. of TEAEs ([2]; Total over the study, N = 12): 11
- TEAE related to GP681, Overall total: no. of subjects ([2]; Total over the study, N = 12): 5
- serious adverse events ([2]; whole study, 12 subjects): No serious adverse events
- conversion of prodrug to active form (carboxylesterase CES2): converted to an active form GP1707D07 by carboxylesterase CES2
- radioactivity recovery in feces [3]: 84.1%
- radioactivity recovery in urine [3]: 6.0%
- total radioactivity recovery rate [3]: 90.1%
- detection of prodrug in plasma following oral administration [4]: scarcely detected in plasma
- route of excretion [4]: mainly excreted in feces
- inhibition of transport activity of OATP1B1 (OATP1B1): nor do they inhibit the transport activity
- substrate for the BCRP transporter (BCRP): Neither Suraxavir Marboxil (GP681) nor its metabolite, GP1707D07, serves as substrates
- substrate for the MDR1 transporter (MDR1 [5]): Neither Suraxavir Marboxil (GP681) nor its metabolite, GP1707D07, serves as substrates
- inhibition of transport activity of OAT3 (OAT3): nor do they inhibit the transport activity
- inhibition of transport activity of OATP1B3 (OATP1B3): nor do they inhibit the transport activity
- inhibition or induction of liver enzymes (liver enzymes): do not significantly inhibit or induce liver enzymes
- plasma concentrations of GP681 in all the rest of blood samples [6]: below the quantification limit

SMILES: CCC(C)n1ncn(-c2ccc(N3CCN(c4ccc(OCC5COC(Cn6cncn6)(c6ccc(Cl)cc6Cl)O5)cc4)CC3)cc2)c1=O (stereo not shown) [Itraconazole]
- TEAE Alanine aminotransferase increased: no. of TEAEs [2, 7]: 1
- TEAE Alanine aminotransferase increased: no. of subjects (percent of subjects) [2, 7]: 1 (8.3)
- TEAE Basophil count increased: no. of subjects (percent of subjects) [2, 7]: 0
- TEAE Gamma-glutamyltransferase increased: no. of subjects (percent of subjects) [2, 7]: 0
- TEAE Hemoglobin decreased: no. of subjects (percent of subjects) [2, 7]: 0
- TEAE Hepatobiliary disorders: no. of subjects (percent of subjects) [2, 7]: 1 (8.3)
- TEAE Hyperbilirubinemia: no. of subjects (percent of subjects) [2, 7]: 1 (8.3)
- TEAE Hypertriglyceridemia: no. of subjects (percent of subjects) [2, 7]: 1 (8.3)
- TEAE Hyperuricemia: no. of subjects (percent of subjects) [2, 7]: 0
- TEAE Hypophosphatemia: no. of subjects (percent of subjects) [2, 7]: 0
- TEAE Investigations: no. of TEAEs [2, 7]: 2
- TEAE Investigations: no. of subjects (percent of subjects) [2, 7]: 2 (16.7)
- TEAE Lymphocyte count decreased: no. of subjects (percent of subjects) [2, 7]: 0
- TEAE Metabolism and nutrition disorders: no. of subjects (percent of subjects) [2, 7]: 1 (8.3)
- TEAE Occult blood in urine: no. of TEAEs [2, 7]: 1
- TEAE Occult blood in urine: no. of subjects (percent of subjects) [2, 7]: 1 (8.3)
- TEAE Overall total: no. of TEAEs [2, 7]: 4
- TEAE Overall total: no. of subjects (percent of subjects) [2, 7]: 4 (33.3)
- TEAE Red blood cell increased: no. of subjects (percent of subjects) [2, 7]: 0
- TEAE Total bile acid increased: no. of subjects (percent of subjects) [2, 7]: 0
- TEAE White blood cell increased: no. of subjects (percent of subjects) [2, 7]: 0
- TEAE Overall total: no. of subjects (percent of subjects) ([2]; N = 12, treatment stage given by label, listed as itraconazole): 4
